According to patent US20100112089A1, “PEPTIDE COMPOUND AND USE THEREOF” (Takeda Pharmaceutical Company Limited, priority 2008, published 2010):
Counter-ions that a name gives are not always drawn. Like-named read-outs stand apart in the source and are kept apart here. Square brackets hold non-standard residues; d marks the D form. Peptide text beside a SMILES is read from it. dPhe(F5) = N[C@H](Cc1c(F)c(F)c(F)c(F)c1F)C(=O)O; dBpa = N[C@H](Cc1ccc(C(=O)c2ccccc2)cc1)C(=O)O; dCha = N[C@H](CC1CCCCC1)C(=O)O

Assays:
[1] = Pharmacokinetics of CBP501, combination study; type: in vivo, human; conditions: for Cl / AUC(0-inf) / Cmax / clearance / half-life: combination with cisplatin; for AUC(0-inf) / Cmax / clearance / half-life: human, in vivo
[2] = system: NCI-H226 cells; test: Water soluble tetrazolium (WST) analysis; type: cell-based; conditions: 72 hours
Protocol: (§1) The medium was replaced 24 hr after treatment, the cells were incubated for an additional 48 hr, and WST-8 solution (Kishida Chemical Co., Osaka, Japan) was added to each well. After 4 hr of incubation at 37° C., the absorbance at 450 nm was measured by microplate reader (Molecular Devices, Calif.).

[3] = system: MSTO-211H cells; test: Water soluble tetrazolium (WST) analysis; type: cell-based; conditions: 72 hours
Protocol: as §1

[4] = at the recommended dose; non-patent literature 15; read-out: Cmax in the human studies; cited from earlier work
[5] = CBP501 7.2 mg/m^2, Day 1, mean, N 3
[6] = CBP501 10.8 mg/m^2, Day 1, mean, N 5
[7] = CBP501 16.2 mg/m^2, Day 1, mean, N 3
[8] = CBP501 24.3 mg/m^2, Day 1, mean, N 2
[9] = CBP501 36.45 mg/m^2, Day 1, mean, N 5

Molecule `N=C(N)NCCC[C@@H](NC(=O)[C@@H](CCCNC(=N)N)NC(=O)[C@@H](CCC(N)=O)NC(=O)[C@@H](CCCNC(=N)N)NC(=O)[C@@H](CCCNC(=N)N)NC(=O)[C@@H](CCCNC(=N)N)NC(=O)[C@@H](CC1CCCCC1)NC(=O)[C@@H](Cc1c(F)c(F)c(F)c(F)c1F)NC(=O)[C@@H](CO)NC(=O)[C@@H](Cc1c[nH]c2ccccc12)NC(=O)[C@@H](CO)NC(=O)[C@H](N)Cc1ccc(C(=O)c2ccccc2)cc1)C(=O)O` [CBP501, H-(D)p-Benzoylphenylalanyl-(D)seryl-(D)tryptophyl-(D)seryl-(D)pentafluorophenylalanyl-(D)cyclohexylalanyl-(D)arginyl-(D)arginyl-(D)arginyl-(D)glutaminyl-(D)arginyl-(D)arginine acetate salt] (H-[dBpa][dS][dW][dS][dPhe(F5)][dCha][dR][dR][dR][dQ][dR][dR]-OH) has a Cl [1, 5] of 2752 mL/h/m^2, a Cl [1, 6] of 2198 mL/h/m^2 and a Cl [1, 7] of 2124 mL/h/m^2. It also gave a Cl [1, 8] of 1217 mL/h/m^2, a Cl [1, 9] of 971 mL/h/m^2 and a Cl ([1]; CBP501 […]^2, Day 1, mean, N 6) of 2526 mL/h/m^2. It also gave an AUC(0-inf) [1, 5] of 2820 ng·h/mL, a Cmax [1, 5] of 1770 ng/mL and a clearance [1, 5] of 1.25 mL/min/kg. For the same molecule, the half-life [1, 5] was 1.7 h, the AUC(0-inf) [1, 6] was 5350 ng·h/mL and the Cmax [1, 6] was 2550 ng/mL. For the same molecule, the clearance [1, 6] was 0.883 mL/min/kg, the half-life [1, 6] was 1.7 h and the AUC(0-inf) [1, 7] was 7640 ng·h/mL. For the same molecule, the Cmax [1, 7] was 3490 ng/mL, the clearance [1, 7] was 0.9 mL/min/kg and the half-life [1, 7] was 2.8 h. For the same molecule, the AUC(0-inf) [1, 8] was 20200 ng·h/mL, the Cmax [1, 8] was 6830 ng/mL and the clearance [1, 8] was 0.567 mL/min/kg. The half-life [1, 8] was 4.1 h, the AUC(0-inf) [1, 9] was 39400 ng·h/mL and the Cmax [1, 9] was 9490 ng/mL. The clearance [1, 9] was 0.417 mL/min/kg, the half-life [1, 9] was 3.7 h and the clearance ([1]; CBP501 […]^2, Day 1, mean, N 6) was 1.05 mL/min/kg. For the same molecule, the half-life ([1]; CBP501 […]^2, Day 1, mean, N 6) was 3.9 h, the “dose-proportionality of Cmax and AUC” value ([1]; in combination with cisplatin, over the dose range evaluated, acetate salt) was “showed dose-proportionality” and the “cytotoxicity of cisplatin on addition of CBP501” value [2] was “increased”. The “cytotoxicity of cisplatin on addition of CBP501” value [3] was “increased” and the Cmax [4] was ~4 µM.
